Experimental data as given in US20260325473A1, “N-Beta-Hydroxybutyryl-Amino Acids and Related Compositions and Methods” (The Board of Trustees of the Leland Stanford Junior …, priority 2023, published 2026).

Experiments:
CNDP2 [1] = target: T1, CNDP2 (Mus musculus, UniProt Q9D1A2); assay: In vitro synthase (condensation) activity, lysates of CNDP2-transfected HEK293T cells; assay type: biochemical; set-up: expressed in transfected cells; host or cells: HEK293T (lysate); settings: role: substrate; organic acids 1 mM with 10 mM phenylalanine
T1 sequence (Q9D1A2 1-475): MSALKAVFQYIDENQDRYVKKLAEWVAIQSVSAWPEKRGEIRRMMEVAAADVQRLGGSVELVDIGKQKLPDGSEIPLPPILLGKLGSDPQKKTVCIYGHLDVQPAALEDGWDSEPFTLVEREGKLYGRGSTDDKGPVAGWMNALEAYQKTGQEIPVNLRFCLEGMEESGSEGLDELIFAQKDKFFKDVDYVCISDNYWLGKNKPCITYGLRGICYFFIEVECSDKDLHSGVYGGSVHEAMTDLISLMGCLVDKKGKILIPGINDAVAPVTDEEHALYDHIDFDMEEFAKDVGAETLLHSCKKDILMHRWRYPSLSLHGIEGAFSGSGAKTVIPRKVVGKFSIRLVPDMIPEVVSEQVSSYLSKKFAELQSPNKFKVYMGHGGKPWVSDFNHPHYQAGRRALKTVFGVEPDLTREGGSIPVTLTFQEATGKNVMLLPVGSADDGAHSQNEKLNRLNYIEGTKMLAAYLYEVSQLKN

[2] = Metabolite quantitation in mouse plasma (QQQ-LC/MS); assay type: in vivo
Protocol: Preparation of plasma samples for LC-MS analysis. Plasma was collected from mice via a submandibular bleed into lithium heparin tubes (BD, 365985) and immediately transferred onto ice. The blood was centrifuged at 4° C. at 5000 rpm for 5 min and the top layer of plasma was aliquoted and frozen at −80 °C. To extract polar metabolites from plasma for LC-MS analysis, 150 μl of a 2:1 mixture of acetonitrile/methanol was added to 50 μl of plasma. The mixture was centrifuged at 4° C. for 10 min at 15,000 rpm and the supernatant was transferred to a LC-MS vial.
Targeted metabolomics. Targeted measurements were performed using an Agilent 6470 triple quadrupole LC-MS instrument. MS analysis was performed using AJS in negative mode. The AJS source parameters were set as follows: the dry gas temperature was set at 250° C. with a gas flow of 12 l/min and the nebulizer pressure at 25 psi; the sheath gas temperature was set to 300° C. with the sheath gas flow set at 12 l/min; and the capillary voltage was set to 3,500 V. Separation of polar metabolites was performed as described above in the ‘Untargeted measurements of metabolites by LC-MS’ section. Multiple reaction monitoring was performed for the indicated metabolites with the listed dwell times, fragmentor voltage, collision energies, cell accelerator voltages and polarities. Quantification of the endogenous metabolite concentrations were performed by generating a standard curve with known concentrations of each metabolite. Metabolite standards were analyzed alongside the plasma samples using the same targeted triple quadrupole LC/MS method. A calibration standard curve generated from the metabolite standard concentrations and total peak areas were used to calculate the concentrations of each endogenous metabolite. The dilution of the plasma during the sample preparation was also taken into account for the quantification.

brain lysate proteins = assay: Competition of X-Phe photoprobe-labeled brain proteins, quantitative shotgun proteomics; assay type: binding, mouse
Protocol: Shotgun proteomics of X-Phe photoprobe-labeled proteins. Brains from wild type C57BL/6J mice were harvested and homogenized using a bead blaster in PBS. Brain homogenate was centrifuged (15,000 rpm, 10 min) to yield the cytosolic supernatant and membrane pellet fractions. The cytosolic fraction was transferred to a new eppie and centrifuged again (15,000 rpm, 10 min). This process was repeated 4 times until no pellet was present after centrifugation. The membrane pellet was washed with 1 ml PBS and centrifuged (15,000 rpm, 10 min); this step was also repeated 4 times to remove any cytosolic protein contamination. After the centrifugation steps, the membrane pellet was re-suspended in PBS and sonicated. For competition experiments, brain lysate was normalized to 2 mg/ml in PBS and incubated with competitors at the indicated concentrations at room temperature for 30 minutes. 100 μM of the photoprobe was added and the reactions incubated on ice for 10 minutes protected from light. Reactions were then put under UV for 1 min on a UV Stratalinker. A biotin click reaction was performed by adding the following reagents to the indicated final concentrations: […], 1 mM CuSO4, 1 mM TCEP (freshly prepared), 30 μM Biotin-N3. Reactions were allowed to proceed for 1 hour at room temp, protected from light, and while rotating. The following prep was adapted from Niphakis et al. 2015. To each reaction, the following solvents were added in order, 4 ml cold methanol, 1 ml cold chloroform, 2 ml cold PBS. The mixture was vortexed well and centrifuged (4,600×g, 15 min, 4° C.). After centrifugation the organic and aqueous layers were removed without disruption of the protein disc. The protein disc was washed with a cold 1:1 mixture of methanol:chloroform 3 times. After the final wash, the protein disc was re-suspended in a 4:1 mixture of methanol:chloroform and sonicated. The insoluble protein was pelleted by centrifugation (4,600×g, 15 min, 4 C) and the pellet re-suspended in freshly prepared 500 μl of 6 M urea in PBS. 20 μl of 10% (w/v) SDS was added to the solution. The solution was then warmed in a 37 C water bath for 10 min to help dissolve poorly soluble protein. A streptavidin pulldown was the performed on the protein mixture. 250 μl of streptavidin beads were washed 3 times with 1 ml PBS. Protein samples were diluted with 5.5 ml of 0.25% SDS in PBS and incubated with streptavidin beads for 1.5 hr at room temperature. Following incubation, beads were washed 5 times each with 0.25% SDS in PBS, then PBS, then lastly with ultra-pure water Steptavidin beads were suspended in 150 μL resuspension buffer (1 M urea, 50 mM Tris-HCl, pH 8). Proteins were digested with 3 μg of trypsin for 4 hours. Digested peptides were reduced with 5 mM TCEP for 10 minutes. Cys residues were alkylated using 15 mM iodoacetimide (IAA) for 20 minutes. Finally, excess IAA was quenched with 10 mM DTT. Acidified digested peptides were desalted over C18 StageTips [PMID: 12585499]. Peptides were then eluted with 80% acetonitrile, 0.1% TFA and dried in a speedvac. Dried samples were reconstituted with 200 mM EPPS buffer, pH 8.0, and labelled with TMT reagents (Thermo Fisher Scientific). Following incubation at room temperature for 2 h, the reactions were quenched with hydroxylamine to a final concentration of 0.5% (v/v). […]

CNDP2 [3] = target: T1, CNDP2; settings: Li et al. 2022; cited from earlier work
food intake = settings: Li et al. 2022; cited from earlier work
CNDP2 [4] = target: T1, CNDP2; assay: In vitro synthase (condensation) activity, lysates of CNDP2-transfected HEK293T cells; assay type: biochemical; set-up: expressed in transfected cells; host or cells: HEK293T (lysate); settings: role: product; lactate and BHB at varying concentrations, phenylalanine 20 mM
Protocol: In vitro enzyme activity assays. HEK293T cells were transfected with GFP, CNDP2 or CNDP2-E166A using PolyFect (Qiagen 301105) according to the manufacturer's instructions. The medium was changed one day post-transfection. After an additional 24 h, the cells were harvested in PBS, lysed by sonication and centrifuged (10 min at 15,000 rpm) to remove debris. Supernatant was collected and protein concentrations were adjusted. The in vitro reactions were conducted in Eppendorf tubes with 100 μL of 1 mg/mL protein and 20 mM substrates for keto amino acid synthase activity assays and. Reactions were incubated for 1 h at 37° C. and 20 μl of 1 M HCl were added to acidify the medium and to protonate keto amino acids. Reactions were vortexed and 400 μL of ethyl acetate were added to each reaction. Reactions were vortexed for 30 s to extract keto amino acids into the organic layer and centrifuged at 4° C. for 10 min at 15,000 r.p.m. A total of 300 μl from the top layer was transferred to a new Eppendorf tube and dried down under a stream of nitrogen. The residue was re-suspended in 150 μl of an 2:1:1 mixture of acetonitrile: methanol: water. The mixture was centrifuged at 4° C. for 10 min at 15,000 r.p.m. and the supernatant was transferred to a LC-MS vial.

| CNDP2 activity towards organic acid substrates (CNDP2 [1]) | elevation after acute treadmill running ([2]; 15 min running) [fold] | effect of ketone ester administration on level ([2]; 30 min after ketone drink, 3 mg/g) | effect of strenuous and prolonged exercise on level ([2]; 30 min strenuous running) | products formed from combined lactate and BHB (CNDP2 [4]) | SMILES | competition of X-Phe photoprobe-labeled proteins (brain lysate proteins; 100 μM photoprobe, 50-fold excess competitor) [%] | number of the 32 Keto-Phe targets also >80% competed by Lac-Phe (brain lysate proteins; 50-fold excess Lac-Phe) | share of the 32 Keto-Phe targets also >80% competed by Lac-Phe (brain lysate proteins; 50-fold excess Lac-Phe) [%] | Lac-Phe levels upon genetic ablation of CNDP2 (CNDP2 [3]) | food intake (food intake) |
| --- | --- | --- | --- | --- | --- | --- | --- | --- | --- | --- |
| unable to accept | – | – | – | – | CC(=O)O [acetate] | – | – | – | – | – |
| – | 8 | without affecting Lac-Phe levels | robust co-induction | simultaneous production | C[C@H](O)C(=O)N[C@@H](Cc1ccccc1)C(=O)O [Lac-Phe, N-lactoyl phenylalanine] | > 80 | 30 out of 32 | 94 | dramatically reduces Lac-Phe levels | suppresses food intake |
